PMC5281058 (Journal of the American Chemical Society, 2015)
Where two headings read alike, the source gives them in different places. Values belong to the compound of their own block, whether it stands above or below them.

Key:
[1] = molecular target: T1, adenosine deaminase (ADA) (Homo sapiens, UniProt P00813); conditions: conversion of ^thA to ^thI; ref 4b; cited from earlier work
T1 sequence (P00813 1-363): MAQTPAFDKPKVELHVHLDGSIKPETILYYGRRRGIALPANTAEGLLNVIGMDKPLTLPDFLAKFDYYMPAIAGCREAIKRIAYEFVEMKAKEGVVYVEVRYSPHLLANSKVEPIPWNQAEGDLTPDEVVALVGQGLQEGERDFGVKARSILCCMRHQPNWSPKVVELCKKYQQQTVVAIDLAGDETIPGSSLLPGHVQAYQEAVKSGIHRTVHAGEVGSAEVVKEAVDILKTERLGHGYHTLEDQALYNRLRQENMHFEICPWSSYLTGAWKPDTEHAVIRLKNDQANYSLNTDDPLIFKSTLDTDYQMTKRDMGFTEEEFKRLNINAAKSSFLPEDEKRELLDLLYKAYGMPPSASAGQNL

[2] = molecular target: T1, adenosine deaminase (ADA); assay type: biochemical; conditions: for reaction half-life t1/2 of deamination by ADA: calculated assuming a pseudo-first order reaction, real-time absorption; for deamination rate by ADA (in words): real-time continuous measurements, compared with A to I
[3] = cited from earlier work

SMILES: Nc1ncnc2c([C@@H]3O[C@H](CO)[C@@H](O)[C@H]3O)snc12 [^tzA]
reaction half-life t1/2 of deamination by ADA [2]: 39 s
deamination rate by ADA (in words) [2]: at the same rate as it deaminates A to I

SMILES: Nc1nc2c(ncn2[C@@H]2O[C@H](CO)[C@@H](O)[C@H]2O)c(=O)[nH]1 [guanosine]
pKa (N7) ([3]; reported values for guanosine, first value): 3.2–3.3
pKa (N1) ([3]; reported values for guanosine, second value): 9.2–9.6

SMILES: O=c1ccn([C@@H]2O[C@H](CO)[C@@H](O)[C@H]2O)c(=O)[nH]1 [uridine]
pKa (N3 deprotonation) ([3]; values reported for N3 deprotonation in uridine): 9.20–9.25

Now from value to compound, other results behind:

reaction half-life t1/2 of deamination by ADA [2]: 818 s
deamination rate by ADA (in words) [2]: sluggish
SMILES: Nc1ncnc2c([C@@H]3O[C@H](CO)[C@@H](O)[C@H]3O)scc12 [^thA]
enzymatic conversion by ADA, times slower compared to adenosine [1]: approximately 20 times

half-life ([2]; adenosine deaminase (ADA) enzyme): 57 s
SMILES: Nc1ncnc2c1ncn2[C@@H]1O[C@H](CO)[C@@H](O)[C@H]1O [adenosine]
pKa (N1) ([3]; reported values for adenosine): 3.6– 4.2
